Assay results reported in BindingDB's records for doi:10.1021/acs.jmedchem.6b00247 (Sanford Burnham Prebys Medical Discovery Institute, 2016).
pIC50: −log10 of the molar value.

Assay: Antagonist activity against HIV-1 Vif in human CEM cells assessed as inhibition of viral infection

`COc1ccccc1NC(=O)c1ccccc1Sc1ccc([N+](=O)[O-])cc1` showed a pIC50 of 5.35.
